Measurements as given in PMC12165925 (Natural Products and Bioprospecting, 2025).

Assays:
SARS-CoV-2-S pseudovirus = assay: microbe, parasite or virus in culture; format: cell-based; details: for inhibition of attachment of SARS-CoV-2-S pseudovirus to ACE2-expressing HEK293T cells: 5 µM and 50 µM, p < 0.001; for IC50: Pseudovirus
ACE2 = ACE2 (Homo sapiens, UniProt Q9BYF1); assay: Surface plasmon resonance, immobilized ACE2; format: binding; details: for kon / koff: SPR; for kon: read-out: binding rate constant (ka), ACE2; for koff: read-out: dissociation rate constant (kd), ACE2
Experimental: Binding affinities between compounds and ACE2 or S-RBD were evaluated using a Biacore T200 instrument (Cytiva, UK). […] A mixture of 50 mM NHS and 200 mM EDC was injected to activate the surface, after which 20 µg/mL ACE2 was immobilized to achieve 15,020 RU, and 30 µg/mL S-RBD reached 7193 RU. Surface blocking was performed using 1 M ethanolamine at pH 8.5. Delphinidin with 5% DMSO was injected into the flow system and analyzed for 120 s, followed by 300 s of dissociation. Glycine–HCl at pH 3.0 was used for surface regeneration between analyte injections. Data were processed using double reference subtraction and solvent corrections. Binding affinities were determined using a Langmuir 1:1 binding model in Biacore Evaluation software (Cytiva, UK).

S-RBD = S-RBD (Severe acute respiratory syndrome coronavirus 2, UniProt P0DTC2); assay: Surface plasmon resonance, immobilized S-RBD; format: binding, SARS-CoV-2; details: SPR; for Kd: Langmuir 1:1 binding model; for kon: read-out: ka, S-RBD
HCoV-229E = assay: Anti HCoV-229E activity in BEL-7402 cells (CPE, RT-qPCR); format: cell-based
SARS-CoV-2 3CL^pro [1] = target: T1, SARS-CoV-2 3CL^pro (Severe acute respiratory syndrome coronavirus 2, UniProt P0DTD1)
[2] = set-up: method as in PMID 25980422; details: cited from earlier work
[3] = Cytotoxicity, CCK-8, hACE2-HEK293T cells; details: human
hACE2-HEK293T cells = assay: Cytotoxicity, CCK-8, hACE2-HEK293T cells
BEL-7402 cells = assay: Maximum non-toxic concentration in BEL-7402 cells (CPE monitoring)
SARS-CoV-2 3CL^pro [4] = target: T1, SARS-CoV-2 3CL^pro; assay: biochemical; format: binding
[5] = set-up: method as in PMID 31557009; details: cited from earlier work
SARS-CoV-2 3CL^pro [6] = target: T1, SARS-CoV-2 3CL^pro; assay: biochemical
[7] = Cytotoxicity, CCK-8, Vero-E6 cells; details: African green monkey
Vero-E6 cells = assay: Cytotoxicity, CCK-8, Vero-E6 cells; details: at 200 µM
cathepsin B (CTSB) = cathepsin B (CTSB) (Homo sapiens, UniProt P07858); assay: Host protease inhibitory activity assay, CTSB; details: 50 µM
Experimental: The activities of cathepsin B (CTSB), cathepsin L (CTSL), and chymotrypsin C (CTRC) were assessed following established methods [35, 36]. […] After further dilution to 500 pM, CTSB was incubated with the test compounds for 30 min, followed by the addition of 5 µM Z-Phe-Arg-AMC (NJPeptide Biotech, Nanjing, China) to initiate the reaction. Fluorescence was recorded using a Cytation 5 reader at excitation/emission wavelengths of 360/460 nm.

cathepsin L (CTSL) = cathepsin L (CTSL) (Homo sapiens, UniProt P07711); assay: Host protease inhibitory activity assay, CTSL; details: 50 µM, p < 0.001
Experimental: (§1) Similarly, CTSL (Sino Biological, Beijing, China) was diluted, activated, and incubated with the test compounds before Z-Phe-Arg-AMC was added, with fluorescence measurements taken under the same conditions. For CTRC (Novoprotein, Suzhou, China), a 5 µg/mL solution was incubated with the test compounds in Tris buffer, then activated with trypsin (Sigma, Saint Louis, USA). The reaction was initiated using 100 µM Succinyl-Ala-Ala-Pro-Phe-p-nitroanilide (NJPeptide Biotech, Nanjing, China), and absorbance was measured at 405 nm.

chymotrypsin C (CTRC) = target: T2, chymotrypsin C (CTRC) (Homo sapiens, UniProt Q99895); assay: Host protease inhibitory activity assay, CTRC; details: 50 µM, p < 0.001
T2 sequence (Q99895 30-268): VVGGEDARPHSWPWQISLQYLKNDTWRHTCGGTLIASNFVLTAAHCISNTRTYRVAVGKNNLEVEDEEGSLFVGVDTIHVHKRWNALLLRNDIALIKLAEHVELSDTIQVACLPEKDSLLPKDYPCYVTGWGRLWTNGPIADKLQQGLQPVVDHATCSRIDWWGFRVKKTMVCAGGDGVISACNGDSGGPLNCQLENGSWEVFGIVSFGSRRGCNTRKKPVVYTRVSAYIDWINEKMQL
Experimental: as §1

ACE2, sequence (Q9BYF1 18-805): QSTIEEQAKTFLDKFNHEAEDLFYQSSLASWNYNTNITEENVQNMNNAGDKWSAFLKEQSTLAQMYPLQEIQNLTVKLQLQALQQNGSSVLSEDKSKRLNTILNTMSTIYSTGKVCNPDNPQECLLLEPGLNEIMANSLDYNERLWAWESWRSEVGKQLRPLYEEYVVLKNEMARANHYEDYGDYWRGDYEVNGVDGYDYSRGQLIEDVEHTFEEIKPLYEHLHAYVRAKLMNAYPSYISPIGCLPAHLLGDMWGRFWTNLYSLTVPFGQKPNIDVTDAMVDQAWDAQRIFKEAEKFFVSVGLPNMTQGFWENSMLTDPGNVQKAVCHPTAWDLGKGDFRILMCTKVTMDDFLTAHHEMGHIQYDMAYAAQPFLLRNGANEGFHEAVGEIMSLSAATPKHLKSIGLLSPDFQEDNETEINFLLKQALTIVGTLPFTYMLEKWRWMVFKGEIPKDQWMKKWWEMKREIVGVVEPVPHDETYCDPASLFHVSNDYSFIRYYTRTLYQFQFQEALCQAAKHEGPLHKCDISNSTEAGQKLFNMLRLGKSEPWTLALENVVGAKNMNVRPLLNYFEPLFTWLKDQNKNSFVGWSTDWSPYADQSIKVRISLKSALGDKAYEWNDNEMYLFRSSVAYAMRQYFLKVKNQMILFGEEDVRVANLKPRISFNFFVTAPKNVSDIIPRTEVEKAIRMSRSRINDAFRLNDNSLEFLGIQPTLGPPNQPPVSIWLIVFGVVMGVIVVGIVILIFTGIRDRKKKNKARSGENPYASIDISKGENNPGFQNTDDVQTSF
cathepsin L (CTSL), sequence (P07711 114-333): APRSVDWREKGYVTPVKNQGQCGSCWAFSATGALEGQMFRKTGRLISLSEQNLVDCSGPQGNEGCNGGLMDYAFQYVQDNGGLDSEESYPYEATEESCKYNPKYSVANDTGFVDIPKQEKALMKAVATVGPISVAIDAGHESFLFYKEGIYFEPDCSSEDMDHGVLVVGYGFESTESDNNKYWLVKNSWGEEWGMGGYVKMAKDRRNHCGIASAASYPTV

For C[C@@H]1O[C@@H](O[C@H]2[C@H](OC(=O)[C@]34CCC(C)(C)C[C@H]3C3=CC[C@@H]5[C@@]6(C)C[C@H](O)[C@H](O[C@@H]7O[C@H](CO)[C@@H](O)[C@H](O)[C@H]7O)C(CO)(CO)[C@@H]6CC[C@@]5(C)[C@]3(C)C[C@H]4O)OC[C@H](O)[C@@H]2O)[C@H](O)[C@H](O)[C@H]1O[C@@H]1OC[C@@H](O)[C@H](O)[C@H]1O [DPD, Deapio platycodin D], the “selectivity index (SI), [CC50]/[IC50]” value (SARS-CoV-2-S pseudovirus) was 25.73, the “inhibition of attachment of SARS-CoV-2-S pseudovirus to ACE2-expressing HEK293T cells” value (SARS-CoV-2-S pseudovirus) was “significantly inhibited” and the IC50 (SARS-CoV-2-S pseudovirus) was 1.38 ± 0.46 µM. For the same compound, the Kd (ACE2) was 358 µM, the kon (ACE2) was 54.6 M⁻¹ s⁻¹ and the koff (ACE2) was 0.0196 s⁻¹. The Kd (S-RBD) was 379 µM, the kon (S-RBD) was 103 M⁻¹ s⁻¹ and the “antiviral activity against HCoV-229E” value (HCoV-229E; 12.50 µM (MNTC), BEL-7402 cells, RT-qPCR) was “significant antiviral activity”. For the same compound, the IC50 (HCoV-229E; Human coronavirus 229E, Bel-7402, read-out: IC50, HCoV-229E replication) was 3.3 µM, the “inhibition of SARS-CoV-2 3CL^pro” value (SARS-CoV-2 3CL^pro [1]) was “lack of inhibition” and the Tmax ([2]; oral administration ref 60) was “under 1 h”. The elimination from tissues ([2]; particularly lung tissue ref 60) was “slow elimination”, the CC50 [3] was 35.5 ± 1.77 µM and the “cytotoxicity against hACE2-HEK293T cells” value (hACE2-HEK293T cells; 5 µM) was “no cytotoxicity”. The “cytotoxicity against hACE2-HEK293T cells” value (hACE2-HEK293T cells; 50 µM, p < 0.001) was “had cytotoxicity” and the “maximum non-toxic concentration (MNTC)” value (BEL-7402 cells) was 12.50 µM.
With Oc1cc(O)c2cc(O)c(-c3cc(O)c(O)c(O)c3)[o+]c2c1 [Delphinidin] the “selectivity index (SI), [CC50]/[IC50]” value (SARS-CoV-2-S pseudovirus) was > 4.41, the “inhibition of attachment of SARS-CoV-2-S pseudovirus to ACE2-expressing HEK293T cells” value (SARS-CoV-2-S pseudovirus) was “significantly inhibited” and the IC50 (SARS-CoV-2-S pseudovirus) was 45.4 ± 7.09 µM. For the same compound, the Kd (ACE2) was 6.64 µM, the kon (ACE2) was 309 M⁻¹ s⁻¹ and the koff (ACE2) was 0.00205 s⁻¹. The “kd, S-RBD” value (S-RBD) was 1.14 × 10^–3 s^−1, the Kd (S-RBD) was 2.98 µM and the kon (S-RBD) was 383 M⁻¹ s⁻¹. The Kd (SARS-CoV-2 3CL^pro [4]) was 24.5 µM, the kon (SARS-CoV-2 3CL^pro [4]; read-out: Ka, SARS-CoV-2 3CL^pro) was 296 M⁻¹ s⁻¹ and the “IC50 shift, 3 vs 30 min pre-incubation” value (SARS-CoV-2 3CL^pro [1]) was 2.85 times. For the same compound, the “inhibition mechanism on SARS-CoV-2 3CL^pro” value (SARS-CoV-2 3CL^pro [1]) was “non-competitive inhibitor”, the bioavailability [5] was “low” and the Ki (SARS-CoV-2 3CL^pro [6]) was 0.93 µM. The IC50 (SARS-CoV-2 3CL^pro [6]; IC50, SARS-CoV-2 3CL^pro) was 1.54 ± 0.38 µM, the IC50 (SARS-CoV-2 3CL^pro [6]; IC50, SARS-CoV-2 3CL^pro (TDI)) was 4.39 ± 0.53 µM and the CC50 at 24 h [7] was > 200 µM. The “cytotoxicity on Vero-E6 cells” value (Vero-E6 cells) was “no toxicity”, the CC50 [3] was > 200 µM and the “cytotoxicity against hACE2-HEK293T cells” value (hACE2-HEK293T cells; screening concentrations 5 µM and 50 µM) was “not significantly cytotoxic”. For the same compound, the “inhibition of CTSB” value (cathepsin B (CTSB)) was “did not inhibit”, the “inhibition of CTSL” value (cathepsin L (CTSL)) was “strong inhibitory effect” and the “inhibition of CTRC” value (chymotrypsin C (CTRC)) was “strong inhibitory effect”.
